Measured values as given in the NIST ThermoML archive (doi:10.1021/acs.jced.7b00121).
± gives the expanded uncertainty stated by the source.

Details: 101.33 kPa, Liquid; for viscosity: Falling or rolling sphere viscometry; for mass density: Vibrating tube method

| SMILES | viscosity (288.15 K) [mPa·s] | mass density (288.15 K) [kg/m3] | viscosity (293.15 K) [mPa·s] | mass density (293.15 K) [kg/m3] | viscosity (298.15 K) [mPa·s] | mass density (298.15 K) [kg/m3] | viscosity (303.15 K) [mPa·s] | mass density (303.15 K) [kg/m3] | viscosity (308.15 K) [mPa·s] | mass density (308.15 K) [kg/m3] | viscosity (313.15 K) [mPa·s] | mass density (313.15 K) [kg/m3] | viscosity (318.15 K) [mPa·s] | mass density (318.15 K) [kg/m3] | viscosity (323.15 K) [mPa·s] | mass density (323.15 K) [kg/m3] | viscosity (328.15 K) [mPa·s] | mass density (328.15 K) [kg/m3] | viscosity (333.15 K) [mPa·s] | mass density (333.15 K) [kg/m3] | further results |
| --- | --- | --- | --- | --- | --- | --- | --- | --- | --- | --- | --- | --- | --- | --- | --- | --- | --- | --- | --- | --- | --- |
| CCCCCCCCCC [decane] | 0.987 ± 0.099 | 733.57 ± 1.5 | 0.915 ± 0.092 | 729.81 ± 1.5 | 0.852 ± 0.085 | 726.05 ± 1.5 | 0.797 ± 0.08 | 722.28 ± 1.4 | 0.747 ± 0.075 | 718.49 ± 1.4 | 0.703 ± 0.07 | 714.69 ± 1.4 | 0.663 ± 0.066 | 710.88 ± 1.4 | 0.627 ± 0.063 | 707.06 ± 1.4 | 0.593 ± 0.059 | 703.21 ± 1.4 | 0.563 ± 0.056 | 699.36 ± 1.4 | viscosity (338.15 K): 0.536 ± 0.054 mPa·s; mass density (338.15 K): 695.48 ± 1.4 kg/m3; viscosity (343.15 K): 0.512 ± 0.051 mPa·s; mass density (343.15 K): 691.59 ± 1.4 kg/m3 |
| CCCCCCC [heptane] | 0.432 ± 0.043 | 688.13 ± 1.4 | 0.412 ± 0.041 | 683.93 ± 1.4 | 0.393 ± 0.039 | 679.71 ± 1.4 | 0.377 ± 0.038 | 675.47 ± 1.4 | 0.362 ± 0.036 | 671.2 ± 1.4 | 0.348 ± 0.035 | 666.89 ± 1.4 | 0.335 ± 0.034 | 662.55 ± 1.4 | 0.324 ± 0.033 | 658.19 ± 1.3 | 0.312 ± 0.031 | 653.79 ± 1.3 | 0.302 ± 0.03 | 649.33 ± 1.3 | viscosity (338.15 K): 0.293 ± 0.029 mPa·s; mass density (338.15 K): 644.84 ± 1.3 kg/m3; viscosity (343.15 K): 0.284 ± 0.029 mPa·s; mass density (343.15 K): 640.29 ± 1.3 kg/m3 |
| CCCCCCCCC [nonane] | 0.763 ± 0.077 | 721.64 ± 1.4 | 0.713 ± 0.072 | 717.78 ± 1.4 | 0.669 ± 0.067 | 713.91 ± 1.4 | 0.63 ± 0.063 | 710.03 ± 1.4 | 0.594 ± 0.06 | 706.12 ± 1.4 | 0.564 ± 0.057 | 702.2 ± 1.4 | 0.535 ± 0.054 | 698.26 ± 1.4 | 0.509 ± 0.051 | 694.3 ± 1.4 | 0.485 ± 0.049 | 690.33 ± 1.4 | 0.462 ± 0.046 | 686.34 ± 1.4 | viscosity (338.15 K): 0.443 ± 0.044 mPa·s; mass density (338.15 K): 682.31 ± 1.4 kg/m3; viscosity (343.15 K): 0.425 ± 0.043 mPa·s; mass density (343.15 K): 678.26 ± 1.4 kg/m3 |
| CCCCCCCC [octane] | 0.585 ± 0.059 | 706.54 ± 1.4 | 0.552 ± 0.055 | 702.53 ± 1.4 | 0.523 ± 0.052 | 698.51 ± 1.4 | 0.496 ± 0.05 | 694.48 ± 1.4 | 0.473 ± 0.047 | 690.42 ± 1.4 | 0.45 ± 0.045 | 686.34 ± 1.4 | 0.431 ± 0.043 | 682.24 ± 1.4 | 0.412 ± 0.041 | 678.11 ± 1.4 | 0.395 ± 0.04 | 673.95 ± 1.4 | 0.379 ± 0.038 | 669.77 ± 1.4 | viscosity (338.15 K): 0.365 ± 0.037 mPa·s; mass density (338.15 K): 665.55 ± 1.4 kg/m3; viscosity (343.15 K): 0.352 ± 0.035 mPa·s; mass density (343.15 K): 661.28 ± 1.3 kg/m3 |
